{
  "source": "BindingDB's records for doi:10.7270/Q2HM5725",
  "about": "(Burnham Center For Chemical Genomics, 2012)",
  "data": [
    {"target": "Neuropilin-1 (Homo sapiens, UniProt O14786)", "sequence (O14786 whole entry)": "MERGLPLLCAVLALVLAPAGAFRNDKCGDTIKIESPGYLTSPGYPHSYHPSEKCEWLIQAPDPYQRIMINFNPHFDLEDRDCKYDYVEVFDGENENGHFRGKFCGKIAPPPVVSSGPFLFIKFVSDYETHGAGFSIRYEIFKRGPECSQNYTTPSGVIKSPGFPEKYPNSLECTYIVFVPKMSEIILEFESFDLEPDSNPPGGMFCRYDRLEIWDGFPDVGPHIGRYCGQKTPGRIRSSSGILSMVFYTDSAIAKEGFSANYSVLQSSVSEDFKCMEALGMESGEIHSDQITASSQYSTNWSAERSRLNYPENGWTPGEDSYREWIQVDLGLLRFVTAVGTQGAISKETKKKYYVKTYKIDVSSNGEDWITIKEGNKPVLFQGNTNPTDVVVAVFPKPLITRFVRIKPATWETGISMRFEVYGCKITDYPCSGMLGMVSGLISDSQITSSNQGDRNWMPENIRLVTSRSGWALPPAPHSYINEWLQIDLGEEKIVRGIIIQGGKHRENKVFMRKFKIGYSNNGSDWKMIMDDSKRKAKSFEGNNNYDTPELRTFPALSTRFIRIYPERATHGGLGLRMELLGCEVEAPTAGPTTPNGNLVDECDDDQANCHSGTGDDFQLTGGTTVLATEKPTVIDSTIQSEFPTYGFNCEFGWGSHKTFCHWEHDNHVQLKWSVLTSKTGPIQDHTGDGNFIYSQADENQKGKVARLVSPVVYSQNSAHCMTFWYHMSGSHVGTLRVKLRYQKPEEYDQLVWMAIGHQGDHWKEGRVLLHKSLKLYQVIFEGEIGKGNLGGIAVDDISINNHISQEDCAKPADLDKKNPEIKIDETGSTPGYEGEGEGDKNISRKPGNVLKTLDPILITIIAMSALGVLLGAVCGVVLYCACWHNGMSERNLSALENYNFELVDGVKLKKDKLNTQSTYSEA", "units": {"IC50": "µM"}, "values": [
      {"smiles": "O=C(Cc1ncnc2c1ncn2C1OC(CO)C(O)C1O)c1ccccc1", "note": "(configuration not stated)", "IC50": "> 95"},
      {"smiles": "Cc1ccc(N=CC(S(=O)(=O)c2ccccc2)S(=O)(=O)c2ccccc2)cc1", "IC50": "> 95"},
      {"smiles": "COC(=O)C1=C(C)N=C(C)C(C(=O)OC)C1C(=O)OC(C)C(=O)c1ccccc1", "note": "(configuration not stated) [2,6-dimethyl-1,4-dihydropyridine-3,4,5-tricarboxylic acid O3,O5-dimethyl ester O4-(1-oxo-1-phenylpropan-2-yl) ester]", "IC50": "> 95"},
      {"smiles": "C=CCN1C(=O)C2(c3ccccc3OC(=N)C2C(=O)OCC)c2c1c1ccccc1oc2=O", "note": "(configuration not stated) [2-amino-2',4'-dioxo-1'-prop-2-enyl-3-spiro[1-benzopyran-4,3'-[1]benzopyrano[4,3-b]pyrrole]carboxylic acid ethyl ester]", "IC50": "> 95"},
      {"smiles": "CCOc1ccc(-n2c(O)cc(N3CCN(c4ccc(Cl)cc4)CC3)c2O)cc1", "note": "[3-[4-(4-Chloro-phenyl)-piperazin-1-yl]-1-(4-ethoxy-phenyl)-pyrrolidine-2,5-dione]", "IC50": "> 95"},
      {"smiles": "CCOC(=O)C1=C(C)N=C2CCCC(=O)C2C1c1cn(Cc2ccc(Cl)cc2Cl)nc1-c1ccccc1", "note": "(configuration not stated) [4-[1-[(2,4-dichlorophenyl)methyl]-3-phenyl-4-pyrazolyl]-2-methyl-5-oxo-4,6,7,8-tetrahydro-1H-quinoline-3-carboxylic acid ethyl ester]", "IC50": "> 95"},
      {"smiles": "COc1ccc2c(c1)N(C)/C(=C1/S/C(=N\\Cc3ccccc3)N(c3ccccc3)C1=O)S2", "note": "[(5Z)-5-(5-methoxy-3-methyl-1,3-benzothiazol-2-ylidene)-3-phenyl-2-(phenylmethyl)imino-1,3-thiazolidin-4-one]", "IC50": "> 95"},
      {"smiles": "COc1cccc(N2[C@@H](CC(C)=O)c3ccc(C=CC(C)=O)cc3S2(=O)=O)c1", "note": "[(E)-4-[(3S)-2-(3-methoxyphenyl)-1,1-bis(oxidanylidene)-3-(2-oxidanylidenepropyl)-3H-1,2-benzothiazol-6-yl]but-3-en-2-one]", "IC50": "> 95"},
      {"smiles": "C=CCOc1ccc(C2C(C(=O)c3c(C)[nH]c(C(=O)OC)c3C)C(=O)C(=O)N2CCN(C)C)cc1", "note": "(configuration not stated) [MLS000081294]", "IC50": "> 95"},
      {"smiles": "Cn1cccc1C1Nc2ccccc2N=C2CC(C)(C)CC(=O)C21", "note": "(configuration not stated) [MLS000533228]", "IC50": "> 95"},
      {"smiles": "CCC(NCCc1ccccc1)=C1C(=O)NC(=O)N(C2CCCCC2)C1=O", "note": "[MLS000557927]", "IC50": "> 95"},
      {"smiles": "Cc1ccc2c(c1)=C(c1ccncc1)NN=C(c1ccc(F)cc1)N=2", "note": "[MLS000692744]", "IC50": "> 95"},
      {"smiles": "CCC1=C(OC(=O)N(CC)CC)N2C(=O)O/C(=N\\CC(=O)OC)[C@]2(Cc2ccccc2)[C@H]2C1=CC[C@H]1C(=O)N(CC(=O)OC)C(=O)[C@H]12", "note": "[MLS000877797]", "IC50": "> 95"},
      {"smiles": "CC(C)C1=NC(=O)NC2CCCCC12", "note": "(configuration not stated) [SMR000060291]", "IC50": "> 95"},
      {"smiles": "Cc1cc2c(cc1C)NC(c1nc3ccccc3[nH]1)C1C(=O)CC(C)(C)CC1=N2", "note": "(configuration not stated) [SMR000120514]", "IC50": "> 95"},
      {"smiles": "COc1ccc(-n2c(O)cc(SCCc3nc4ccccc4[nH]3)c2O)cc1", "note": "[SMR000200354]", "IC50": "> 95"},
      {"smiles": "CC1(c2ccccc2)CC(C)(C)N2C(=O)/C(=C3/NC(=S)NC3=O)c3cccc1c32", "note": "(configuration not stated) [SMR000221518]", "IC50": "> 95"},
      {"smiles": "Cc1ccc(CN=Nc2nc3ccccc3[nH]2)s1", "note": "[SMR000261490]", "IC50": "> 95"},
      {"smiles": "CCC1=C(OC(=O)N(CC)CC)N2C(=O)O/C(=N\\CC(=O)OC)[C@]2(C)[C@H]2C1=CC[C@H]1C(=O)N(CC)C(=O)[C@H]12", "note": "[SMR000440357]", "IC50": "> 95"},
      {"smiles": "CCC1=C(OC(=O)N(CC)CC)N2C(=O)O/C(=N\\CCOC)[C@]2(Cc2ccccc2)[C@H]2C1=CC[C@H]1C(=O)N(CC(=O)OC)C(=O)[C@H]12", "note": "[SMR000440375]", "IC50": "> 95"},
      {"smiles": "CCC1=C(OC(=O)N(CC)CC)N2C(=O)O/C(=N\\CC3CC3)[C@]2(Cc2ccccc2)[C@H]2C1=CC[C@H]1C(=O)N(C)C(=O)[C@H]12", "note": "[SMR000440396]", "IC50": "> 95"},
      {"smiles": "CCOC(=O)C1C(=O)C(=O)N(c2ccccc2)C1c1cccc([N+](=O)[O-])c1", "note": "(configuration not stated) [ethyl 2-(3-nitrophenyl)-4-oxidanyl-5-oxidanylidene-1-phenyl-2H-pyrrole-3-carboxylate]", "IC50": "> 95"}
    ]}
  ]
}
